# Legend:
# Assay type in all cases: cell-based
# [1] = system: Staphylococcus epidermidis 835; assay: MIC by broth microdilution, SE 835; details: Staphylococcus epidermidis, 835, read-out: MIC SE 835
# Protocol: (§1) Antibacterial activity in vitro is investigated by broth microdilution method in Meuller-Hinton broth as recommended by NCCLS. All strains tested are clinical isolates either sensitive or resistant to natural glycopeptides. MIC values were determined using the CLSI-recommended broth microdilution procedure (Clinical and Laboratory Standards Institute, Methods for Dilution Antimicrobial Susceptibility Tests for Bacteria That Grow Aerobically; Approved Standard-Seventh Edition.). Automated liquid handlers (Multidrop 384, Labsystems, Helsinki, Finland; Biomek 2000 and Multimek 96, Beckman Coulter, Fullerton Calif.) were used to conduct serial dilutions and liquid transfers. The MIC value for vancomycin is given for comparison. The abbreviations for organisms tested are as follow: SA 100—Staphylococcus aureus 100 (ATCC 29213); SA 757—Staphylococcus aureus 757 (MRSA); SA 2012—Staphylococcus aureus 2012 (VISA); SE 835—Staphylococcus epidermidis 835; SE 831—Staphylococcus epidermidis 831 (MRSE); EFc 101—Enterococcus faecalis 101 (ATCC 29212); EFc 848—Enterococcus faecalis 848 (VRE, Van A); EFcm 800—Enterococcus faecium 800; EFcm 752—Enterococcus faecium 752 (VRE, Van A); SPNE 1195—Streptococcus pneumoniae 1195 (ATCC 49619); SPY 712—Streptococcus pyogenes 712.
# Enterococcus faecium 800 = assay: MIC by broth microdilution, EFcm 800; details: Enterococcus faecium, 800, read-out: MIC E FCM 800
# Protocol: as §1
# [2] = system: Staphylococcus aureus 100 (ATCC 29213); assay: MIC by broth microdilution, SA 100; details: Staphylococcus aureus, ATCC29213, read-out: MIC SA 100
# Protocol: as §1
# [3] = system: Streptococcus pneumoniae 1195 (ATCC 49619); assay: MIC by broth microdilution, SPNE 1195; details: Streptococcus pneumoniae, ATCC49619, read-out: MIC S PNE 1195
# Protocol: as §1
# [4] = system: Staphylococcus aureus 757 (MRSA); assay: MIC by broth microdilution, SA 757; details: Staphylococcus aureus, MRSA, read-out: MIC SA 757
# Protocol: as §1
# [5] = system: Enterococcus faecium 752 (VRE, Van A); assay: MIC by broth microdilution, EFcm 752; details: Enterococcus faecium, VRE, read-out: MIC E FCM 752, Enterococcus faecium 752 (VRE, Van A); class symbols
# Protocol: as §1
# [6] = system: Enterococcus faecalis 848 (VRE, Van A); assay: MIC by broth microdilution, EFc 848; details: Enterococcus faecalis, VRE, read-out: MIC E FC 848, Enterococcus faecalis 848 (VRE, Van A); class symbols
# Protocol: as §1
# [7] = system: Staphylococcus epidermidis 831 (MRSE); assay: MIC by broth microdilution, SE 831; details: Staphylococcus epidermidis, MRSE, read-out: MIC SE 831
# Protocol: as §1
# [8] = system: Enterococcus faecalis 101 (ATCC 29212); assay: MIC by broth microdilution, EFc 101; details: Enterococcus faecalis, ATCC29212, read-out: MIC E FC 101, Enterococcus faecalis 101 (ATCC 29212); class symbols
# Protocol: as §1
# [9] = system: Streptococcus pyogenes 712; assay: MIC by broth microdilution, SPY 712; details: Streptococcus pyogenes, 712, read-out: MIC S PYO 712
# Protocol: as §1
# [10] = system: Staphylococcus aureus 2012 (VISA); assay: MIC by broth microdilution, SA 2012; details: Staphylococcus aureus, VISA, read-out: MIC SA 2012, Staphylococcus aureus 2012 (VISA); class symbols
# Protocol: as §1
smiles,measurement,setting,value
CCCCOc1ccc(CCNC(=O)Oc2cc(O)c3c(c2)[C@@H](C(=O)NC2C4CC5CC(C4)CC2C5)NC(=O)[C@H]2NC(=O)[C@H](NC(=O)[C@@H]4NC(=O)[C@H](CC(N)=O)NC(=O)[C@H](NC(=O)[C@@H](CC(C)C)NC)[C@H](O)c5ccc(c(Cl)c5)Oc5cc4cc(c5O[C@@H]4O[C@H](CO)[C@@H](O)[C@H](O)[C@H]4O[C@H]4C[C@](C)(N)[C@H](O)[C@H](C)O4)Oc4ccc(cc4Cl)[C@H]2O)c2ccc(O)c-3c2)cc1 (stereo partly shown) [Compound 339],MIC,[1],0.01 to 0.5 µg/mL
same,MIC,Enterococcus faecium 800,0.01 to 0.5 µg/mL
same,MIC,[2],0.01 to 0.5 µg/mL
same,MIC,[3],0.01 to 0.5 µg/mL
same,MIC,[4],0.01 to 0.5 µg/mL
same,MIC,[5],0.5 to 1 µg/mL
same,MIC,[6],4 to 8 µg/mL
same,MIC,[7],0.01 to 0.5 µg/mL
same,MIC,[8],0.01 to 0.5 µg/mL
same,MIC,[9],0.01 to 0.5 µg/mL
same,MIC,[10],0.5 to 1 µg/mL
"CCCCCOCCNC(=O)Oc1cc(O)c2c(c1)[C@@H](C(=O)O)NC(=O)[C@H]1NC(=O)[C@H](NC(=O)[C@@H]3NC(=O)[C@H](CC(N)=O)NC(=O)[C@H](NC(=O)[C@@H](CC(C)C)NC)[C@H](O)c4ccc(c(Cl)c4)Oc4cc3cc(c4O[C@@H]3O[C@H](CO)[C@@H](O)[C@H](O)[C@H]3O[C@H]3C[C@](C)(N)[C@H](O)[C@H](C)O3)Oc3ccc(cc3Cl)[C@H]1O)c1ccc(O)c-2c1 (atropisomer, axis not shown) [Compound 348]",MIC,[1],4 to 8 µg/mL
same,MIC,Enterococcus faecium 800,1 to 2 µg/mL
same,MIC,[2],2 to 4 µg/mL
same,MIC,[3],0.01 to 0.5 µg/mL
same,MIC,[4],2 to 4 µg/mL
same,MIC,[5],> 16 µg/mL
same,MIC,[6],> 16 µg/mL
same,MIC,[7],4 to 8 µg/mL
same,MIC,[8],2 to 4 µg/mL
same,MIC,[9],0.5 to 1 µg/mL
same,MIC,[10],8 to 16 µg/mL
"CCCOc1ccc(NC(=O)Oc2cc(O)c3c(c2)[C@@H](C(=O)O)NC(=O)[C@H]2NC(=O)[C@H](NC(=O)[C@@H]4NC(=O)[C@H](CC(N)=O)NC(=O)[C@H](NC(=O)[C@@H](CC(C)C)NC)[C@H](O)c5ccc(c(Cl)c5)Oc5cc4cc(c5O[C@@H]4O[C@H](CO)[C@@H](O)[C@H](O)[C@H]4O[C@H]4C[C@](C)(N)[C@H](O)[C@H](C)O4)Oc4ccc(cc4Cl)[C@H]2O)c2ccc(O)c-3c2)cc1 (atropisomer, axis not shown) [Compound 329]",MIC,[1],2 to 4 µg/mL
same,MIC,Enterococcus faecium 800,0.5 to 1 µg/mL
same,MIC,[2],1 to 2 µg/mL
same,MIC,[3],0.01 to 0.5 µg/mL
same,MIC,[4],0.5 to 1 µg/mL
same,MIC,[5],> 16 µg/mL
same,MIC,[6],> 16 µg/mL
same,MIC,[7],2 to 4 µg/mL
same,MIC,[8],0.5 to 1 µg/mL
same,MIC,[9],0.01 to 0.5 µg/mL
same,MIC,[10],8 to 16 µg/mL
CCCCCCCC(C)NC(=O)Oc1cc(O)c2c(c1)[C@@H](C(=O)NC1C3CC4CC(C3)CC1C4)NC(=O)[C@H]1NC(=O)[C@H](NC(=O)[C@@H]3NC(=O)[C@H](CC(N)=O)NC(=O)[C@H](NC(=O)[C@@H](CC(C)C)NC)[C@H](O)c4ccc(c(Cl)c4)Oc4cc3cc(c4O[C@@H]3O[C@H](CO)[C@@H](O)[C@H](O)[C@H]3O[C@H]3C[C@](C)(N)[C@H](O)[C@H](C)O3)Oc3ccc(cc3Cl)[C@H]1O)c1ccc(O)c-2c1 (stereo partly shown) [Compound 312],MIC,[1],0.5 to 1 µg/mL
same,MIC,Enterococcus faecium 800,0.01 to 0.5 µg/mL
same,MIC,[2],0.01 to 0.5 µg/mL
same,MIC,[3],0.01 to 0.5 µg/mL
same,MIC,[4],0.01 to 0.5 µg/mL
same,MIC,[5],0.5 to 1 µg/mL
same,MIC,[6],> 16 µg/mL
same,MIC,[7],0.01 to 0.5 µg/mL
same,MIC,[8],0.01 to 0.5 µg/mL
same,MIC,[9],0.01 to 0.5 µg/mL
same,MIC,[10],> 16 µg/mL
CCCCCOc1ccc(CCNC(=O)Oc2cc(O)c3c(c2)[C@@H](C(=O)NC2C4CC5CC(C4)CC2C5)NC(=O)[C@H]2NC(=O)[C@H](NC(=O)[C@@H]4NC(=O)[C@H](CC(N)=O)NC(=O)[C@H](NC(=O)[C@@H](CC(C)C)NC)[C@H](O)c5ccc(c(Cl)c5)Oc5cc4cc(c5O[C@@H]4O[C@H](CO)[C@@H](O)[C@H](O)[C@H]4O[C@H]4C[C@](C)(N)[C@H](O)[C@H](C)O4)Oc4ccc(cc4Cl)[C@H]2O)c2ccc(O)c-3c2)cc1 (stereo partly shown) [Compound 338],MIC,[1],0.01 to 0.5 µg/mL
same,MIC,Enterococcus faecium 800,0.01 to 0.5 µg/mL
same,MIC,[2],0.01 to 0.5 µg/mL
same,MIC,[3],0.01 to 0.5 µg/mL
same,MIC,[4],0.01 to 0.5 µg/mL
same,MIC,[7],0.01 to 0.5 µg/mL
same,MIC,[8],0.01 to 0.5 µg/mL
same,MIC,[9],0.01 to 0.5 µg/mL

# Source: patent US20110015119A1, “NOVEL SEMI-SYNTHETIC GLYCOPEPTIDES AS ANTIBACTERIAL AGENTS” (LEAD THERAPEUTICS, INC., priority 2009, published 2011)
